# Test results as given in patent US9066947B2, “Indolyl-substituted pyrazino[1,2-b]isoquinolines for cancer treatment” (Everest Biosciences, Inc., priority 2009, dated 2015).
# What was measured:
# [1] = test system: PC-3 tumors; assay: PC-3 prostate cancer xenograft mouse model of tumor growth and metastasis; format: in vivo, athymic NMRI nude mice; settings: tumors 500-600 mm3 at start, 40 mg/kg intravenous injection, day 20 (FIG. 2)
# [2] = Basic toxicity study in healthy mice; format: in vivo; settings: for cage-side observations (food consumption, daily activities, toxic effect) / histology of livers and kidney: 13 days
# Protocol: (§1) For the assessment of toxicity of Substance X, healthy mice were treated with Substance X by intravenous injection at a dose of 100 mg/kg or 200 mg/kg once every other day for 13 days. Body weight of each mouse was measured periodically from Day 1 to Day 13 of the treatment. Cage-side observations including: mortality, moribundity, food consumption and activities were performed once every other day. Blood samples were taken on Day 1 and Day 13 for measurement of blood cell counts. To assess toxicity of Substance X on mice with tumors, mice bearing subcutaneous PC-3 tumors were treated with Substance X at a high dose of 200 mg/kg once every other day for 19 days. Body weight was measured and cage-side observations were performed once every other day. Lymph node, liver, lung, spleen and femurs were removed from each mouse and were examined. Toxicity of Substance X was also assessed in tumor-bearing mice treated with 80 mg/kg of Substance X daily as described above.
# [3] = test system: VEGF receptor 2; assay: Immunohistochemical analysis of VEGF receptor 2 expression in PC-3 xenograft tumors; format: in vivo, human; settings: versus Control mice (FIG. 5)
# Protocol: (§2) FIG. 5: Effect of Substance X on Expression of VEGF and VEGF Receptor 2 Immunohistochemical analysis of VEGF and VEGF receptor 2 was performed in tumors from the Control mice and the mice treated with Substance X. The representative pictures are shown. Tumor sections (Control) or (Substance X) were stained with antibody against human VEGF and VEGF Receptor 2.
# (§3) The treatment of the compound of Example 1 (also referred to herein as “Substance X”) or PBS containing 5% DMSO (vehicle) as Control was started when tumors reached the desired size as described above. In the first experimental setting, Substance X was administered intravenously once every other day. […] Tumor growth was assessed periodically as described in Results. […] The sections were stained with hematoxylineosin (H&E) or imunohistochemical stained with antibodies and analyzed under an optical microscope. […]
# (§4) Immunohistochemistry on tumor tissues was performed as previously described (Wegiel B, Bjartell A, Ekberg J, Gadaleanu V, Brunhoff C and Persson J L: A role for cyan AI in mediating the autocrine expression of vascular endothelial growth factor in prostate cancer. Oncogene 24: 6385-6393, 2005) by using antibodies to human CD-31 (Dako, Goistrup, Denmark A/S). […] For analysis of tumor angiogenesis, tumor sections stained with antibody against CD3I were examined and quantified. […]
# [4] = test system: PC-3 tumors; assay: PC-3 prostate cancer xenograft mouse model of tumor growth and metastasis; format: in vivo, athymic NMRI nude mice
# From the text: Athymic NMRI nude mice between 6-8 weeks old (Taconic; Bomholt, Denmark) were used. Prostate cancer xenograft mouse model was created by implanting hormone-independent PC3 tumor cells subcutaneously into athymic nude mice as previously described (Wegiel B, Bjartell A, Tuomela J, et al.: Multiple cellular mechanisms related to cyclin Al in prostate cancer invasion and metastasis. Journal of the National Cancer Institute 100: 10221036, 2008).
# PC-3 cells were purchased from American Type Culture Collection (Manassas, V A) and cultured in RPMI-1640 supplemented with 10% Fetal Bovine Serum. PC-3 cells at 1×10^6/per mouse were used. The mice were divided into three groups (6 mice per group). The first group allowed tumors to grow between 170-400 mm^3 in size before starting the treatment. The second group allowed tumors to grow between 550-650 mm^3 in size before starting the treatment. The third group allowed tumors to grow between 700-800 mm^3 in size before starting the treatment. The tumor diameters were measured twice weekly using calipers. The tumor volumes were calculated using an equation of a*(b2/2) where a and b represent the length and width of the tumor, respectively.
# The treatment of the compound of Example 1 (also referred to herein as “Substance X”) or PBS containing 5% DMSO (vehicle) as Control was started when tumors reached the desired size as described above. In the first experimental setting, Substance X was administered intravenously once every other day. In the second experimental setting, Substance X was administrated orally once every other day. Tumor growth was assessed periodically as described in Results. The mice were sacrificed after treatment by euthanization via isofluorene inhalation. Lymph node, liver, lung, spleen and femurs were removed from each mouse. Half of the tumor tissues were used for histology and immunohistochemical analysis. For histology analysis, tissues were fixed in 4% paraformaldehyde and embedded in paraffin. The sections were stained with hematoxylineosin (H&E) or imunohistochemical stained with antibodies and analyzed under an optical microscope. The other half of the tissues were used for protein analysis and thus were snapfrozen in liquid nitrogen. The body weights of the mice on the first and last day of the treatment were collected and compared. Tumor invasion and metastasis were examined in various tissues from the sacrificed mice.
# For a comparison study, mice with tumors at 190-250 mm^3 in size were treated with the cytotoxic drug Etoposide (Sigma) at a dose of 20 mg/kg via IV injection once every other day. The tumor size was measured as described in the Results. Three mice were treated with Etoposide or the vehicle as Control. The mice were sacrificed and the tissues were collected as described above.
# [5] = test system: CD31; assay: Quantification of angiogenesis by CD31 immunohistochemistry in PC-3 xenograft tumors; format: in vivo, human; settings: versus Control tumors (FIG. 6)
# Protocol: B. Immunohistochemical analysis of tumors from the Control mice and mice treated with Substance X for the expression of CD31. Tumor sections (Control) or (Substance X) were stained with antibody against CD31. (B). Regions of high vascular density at centre or the edge areas within the tumors were examined. The number of CD31-positive pixels per microscopic field was recorded. At least two sections per tumor and three views per section were determined. The statistical T-test was performed and was two-sided and P value less than 0.05 was considered to be statistically significant, P value less than 0.01 is labelled as two asterisks.
# Immunohistochemistry on tumor tissues was performed as previously described (Wegiel B, Bjartell A, Ekberg J, Gadaleanu V, Brunhoff C and Persson J L: A role for cyan AI in mediating the autocrine expression of vascular endothelial growth factor in prostate cancer. Oncogene 24: 6385-6393, 2005) by using antibodies to human CD-31 (Dako, Goistrup, Denmark A/S). Antirabbit peroxidase-conjugated secondary antibodies were applied. Diaminobenzidine colorimetric reagent solution (Dako) was used. […] For analysis of tumor angiogenesis, tumor sections stained with antibody against CD3I were examined and quantified. […] The number of CD31-positive pixels per microscopic field was recorded. At least two sections per tumor and three views per section were determined.
# [6] = test system: PC-3 prostate cancer cells; assay: Cell proliferation assay (trypan blue viable cell count) and IC50 determination; format: cell-based, human; settings: PC-3 cells
# Protocol: All new synthesized compounds and Etoposide were first dissolved in 100% DMSO at initial concentration of 100 mM, and then diluted at final concentration of 200 uM in culture medium. Commercial form of Avastin (25 mg/ml) was diluted to appropriate concentrations in culture medium.
# Hormone-independent and metastatic PC-3 prostate cancer cells were purchased from the American Type Culture Collection (Manassas, Va., USA) and cultured in RPMI-1640 supplemented with 10% fetal bovine serum. Etoposide was purchased from Sigma, Avastin from Roche.
# For cell counting a total of 6×10^4 cells at a density of 0.3×10^6/ml were seeded in 96-well plate. The cells were treated with compounds, Etoposide or Avastin as positive controls at 1 uM, 5 uM, 10 uM, 20 uM, 50 uM, 100 uM for 48 hours. For Avastin 5 uM, 20 uM and 50 uM concentrations were used. The cells were labeled with trypan blue and the viable cells were quantified.
# [7] = Safety in PC-3 tumor-bearing xenograft mice; format: in vivo; settings: PC-3 tumor-bearing mice, 40 mg/kg daily for 30 days
# Protocol: as §1
# We then tested the high dose of Substance X in PC-3 xenograft mice, thereby mimicking its effect on prostate cancer patients. We generated mouse xenograft of human PC-3 tumors by subcutaneous implantation of tumor cells into nude mice. We further tested safety of the dose of 40 mg/kg which generated significant anti-tumor activity in the xenograft mouse model.
# [8] = test system: VEGF; assay: Immunohistochemical analysis of VEGF expression in PC-3 xenograft tumors; format: in vivo, human; settings: versus Control mice (FIG. 5)
# Protocol: as §2, §3, §4
# [9] = healthy mice, 100 mg/kg i.v. once every other day
structure (smiles),measurement,setting,value
"CN1CC(=O)N2[C@H](c3c[nH]c4ccccc34)c3cc4c(cc3C[C@H]2C1=O)OCO4 [Substance X, (5S,9aS)-5-(1H-Indol-3-yl)-8-methyl-7,8,9a,10-tetrahydro-5H-1,3-dioxa-5a,8-diaza-cyclopenta[b]anthracene-6,9-dione]",tumor growth (large tumors),[1],did not grow but showed a slight decrease in size
same,"cage-side observations (food consumption, daily activities, toxic effect)",[2]; 200 mg/kg once every other day,"no abnormality on food consumption and daily activities, or any observable toxic effect"
same,histology of livers and kidney,[2]; 200 mg/kg once every other day,no abnormality in histology
same,body weights,"[2]; 200 mg/kg once every other day, 13 days (FIG. 1B)",steady throughout the study period
same,"cage-side observations (food consumption, daily activities, toxic effect)",[2]; [9],"no abnormality on food consumption and daily activities, or any observable toxic effect"
same,histology of livers and kidney,[2]; [9],no abnormality in histology
same,change in body weight,"[2]; healthy mice, 100 mg/kg i.v. once every other day, 13 days (FIG. 1A)",no significant change in body weight
same,expression of VEGFR2 in tumors,[3],significantly down-regulated
same,tumor size after switch to oral administration,"[4]; 40 mg/kg i.v. for 20 days, from day 21 40 mg/kg oral, versus continuous i.v.",slightly larger tumor size than the mice treated by continuous intravenous injection
same,"tumor growth (large and invasive tumors, longer treatment)",[4]; 40 mg/kg intravenous injection for 30 days,inhibited throughout the treatment period and the tumors shrank significantly at the end of the treatment
same,infiltration of tumor cells into secondary sites (metastasis),"[4]; 40 mg/kg, end of study, histology and immunohistochemical analysis",no infiltration of tumor cells into secondary sites could be detected
same,size of tumors in whole-tumor histology sections,"[4]; VEGF receptor 2 stained sections, versus Control mice (FIG. 6A)",smaller than that from the Control mice
same,oral bioavailability,[4]; inferred from tumor size after oral versus intravenous 40 mg/kg,"orally bioavailable, yet the oral bioavailability is lower than intravenous injection"
same,tumor growth,"[4]; tumors 190-240 mm3 at start, 20 mg/kg intravenously, 21 days",tumor shrank
same,"tumor growth, oral administration throughout","[4]; tumors 300-350 mm3 at start, 40 mg/kg oral (FIG. 3)","able to inhibit the tumor growth, although the effect was not as strong as intravenous injection"
same,"tumor growth, comparison of Etoposide and Substance X","[4]; tumors about 250 mm3, IV once every other day for 14 days, Etoposide 20 mg/kg, Substance X 40 mg/kg (FIG. 4)",stronger inhibitory effect on tumors as compared to Etoposide
same,CD31 expression and number of CD31-expressing vessels in tumors,[5],statistically significant decrease
same,IC50,"[6]; Homo sapiens, viable cells after 48 hours, read-out: IC50 for cell growth inhibition",30 µM
same,concentration from which statistically significant cell growth inhibition started,[6]; 48 hours,5 µM
same,body weights,[7],remained constant throughout the period of treatment
same,"cage-side observations (food consumption, daily activities, toxic effect)",[7],"no abnormality on food consumption and/or daily activities, or any other observable toxic effect"
same,histology of livers and kidney,[7],no abnormality in histology
same,expression of VEGF in tumors,[8],significantly down-regulated
